Laboratory results reported in patent publication US11111232B2, “Substituted cyclobutylpyridine and cyclobutylpyrimidine compounds as indoleamine 2,3-dioxygenase (IDO) inhibitors” (MERCK SHARP & DOHME CORP., priority 2017, dated 2021).

Assays:
[1] = target: IDO1 (Homo sapiens, UniProt P14902); experiment: IDO1 cellular assay in Hela cells stimulated with IFNγ; format: cell-based; conditions: IFNγ 100 ng/mL, 300 uM L-tryptophan, about 48 hours, fluorescence readout
Method: IDO1 Cellular Assay in Hela Cells Stimulated with IFNγ
Hela cells were cultured in complete Hela culture medium (90% EMEM, 10% heat-inactivated fetal bovine serum) and expanded to about 1×10^9 cells. The cells were then collected and frozen down at 1×10^7 cells/vial in 1 mL frozen medium (90% complete Hela culture medium, 10% DMSO)
Compounds to be tested were serially diluted in ten 3-fold steps in DMSO starting from 10 mM DMSO stocks in Echo low volume plate(s).
Frozen Hela cells were thawed and transferred into Hela assay medium (99% complete Hela culture medium, 1% Pen/Strep) with 20 mL medium/vial of cells. The cells were spun down at 250 g in a table top centrifuge for 5 min and suspended in same volume of Hela assay medium. […] Sterile L-tryptophan were added to the cells with final concentration of 300 uM L-tryptophan. A small aliquot (2 mL/plate) of Hela cells were set aside and were not treated with IFNγ, to serve as the Max-E control.
Hela cells with and without IFNγ were dispensed to the respective wells of 384-well assay plates containing the compounds. The plates were incubated for about 48 hours at a 37° C., 5% CO2 incubator. Afterwards, […] of 0.5 M methyl isonipecotate in dimethyl sulfoxide were added into each well and the plates were sealed and incubated at 37° C. without CO2 overnight. The plates were centrifuged for 1 min at 200×g. The resulting fluorescence was measured in a Spectramax plate reader (Molecular Devices) with a 400 nm excitation filter and a 510 nm emission filter.
Potencies were calculated by linear least squares fit to the four parameter logistic IC50 equation.

[2] = target: T1, TDO (Homo sapiens, UniProt P48775); experiment: TDO cellular assay in frozen SW48 cells; format: cell-based; conditions: 300 uM L-tryptophan, about 48 hours, fluorescence readout
T1 construct: endogenous in cells; host or cells: SW48 cells (A2780 cells as low-TDO control)
Method: TDO Cellular Assay in Frozen SW48 Cells
SW48 cells were cultured in complete RPMI culture medium (90% RPMI, 10% heat-inactivated fetal bovine serum).
Compounds to be tested were serially diluted in ten 3-fold steps in DMSO starting from 10 mM DMSO stocks in Echo low volume plate(s). […] The cells were spun down at 350 g in a table top centrifuge for 5 minutes and suspended in same volume of RPMI assay medium. […] Sterile L-tryptophan (Sigma, Cat #T0254) was added to the cells with final concentration of 300 uM.
SW48 and A2780 cells were dispensed to the respective wells of 384-well assay plates containing the compounds. The plates were incubated for about 48 hours at a 37° C., 5% CO2 incubator. Afterwards, 12 μL of 0.5 M ethyl isonipecotate (Sigma Aldrich, Cat #E33505) in dimethyl sulfoxide were added into each well and the plates were sealed and incubated at 37° C. without CO2 overnight. The plates were centrifuged for 1 minute at 200×g. The resulting fluorescence was measured in a Spectramax plate reader (Molecular Devices) with a 400 nm excitation filter and a 510 nm emission filter.
The fluorescence intensity of each well was corrected for the background observed in wells with A2780 cells and was expressed as a fraction of the intensity observed in wells of SW48 cells and DMSO only. Potencies were calculated by linear least squares fit to the four parameter logistic IC50 equation.

IDO1, sequence (P14902 whole entry): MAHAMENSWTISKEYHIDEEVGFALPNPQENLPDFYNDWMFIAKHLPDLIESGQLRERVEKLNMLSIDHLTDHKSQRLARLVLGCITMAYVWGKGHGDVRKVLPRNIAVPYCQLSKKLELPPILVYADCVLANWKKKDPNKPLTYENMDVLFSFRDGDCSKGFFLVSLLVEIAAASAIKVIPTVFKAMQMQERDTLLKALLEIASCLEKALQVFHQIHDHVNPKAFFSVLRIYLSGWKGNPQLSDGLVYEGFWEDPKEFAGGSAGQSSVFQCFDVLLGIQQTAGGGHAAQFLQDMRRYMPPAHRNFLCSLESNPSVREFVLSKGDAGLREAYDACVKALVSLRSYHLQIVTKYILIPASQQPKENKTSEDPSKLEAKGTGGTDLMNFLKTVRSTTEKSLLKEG
T1 sequence (P48775 whole entry): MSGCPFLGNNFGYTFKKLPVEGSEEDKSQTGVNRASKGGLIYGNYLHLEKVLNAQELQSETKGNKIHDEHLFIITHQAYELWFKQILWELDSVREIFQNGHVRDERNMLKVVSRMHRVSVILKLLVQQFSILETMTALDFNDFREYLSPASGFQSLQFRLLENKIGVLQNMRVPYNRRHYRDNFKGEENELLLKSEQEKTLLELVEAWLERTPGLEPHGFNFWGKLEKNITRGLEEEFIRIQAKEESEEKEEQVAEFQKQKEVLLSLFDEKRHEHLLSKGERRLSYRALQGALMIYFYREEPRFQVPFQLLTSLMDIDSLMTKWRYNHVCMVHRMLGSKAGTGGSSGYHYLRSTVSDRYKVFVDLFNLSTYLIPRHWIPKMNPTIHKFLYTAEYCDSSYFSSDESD

| Compound | IC50 [1] | IC50 [2] |
| --- | --- | --- |
| O=C(Nc1ccc(C2(C(=O)NC3CCC(F)(F)CC3)CCC2)cn1)c1cncc(Cl)c1 [Example 33, 5-Chloro-N-(5-(1-((4,4-difluorocyclohexyl)carbamoyl)cyclobutyl)pyridin-2-yl)nicotinamide] | 1600 nM | ≥ 10000 nM |
| O=C(Nc1ccc(C2(C(=O)Nc3ccc(F)cn3)CCC2)cn1)c1cncc(Cl)c1 [Example 34, 5-chloro-N-(5-{1-[(5-fluoropyridin-2-yl)carbamoyl]cyclobutyl}pyridin-2-yl)pyridine-3-carboxamide] | 104 nM | ≥ 10000 nM |
| N#Cc1cccc(C(=O)Nc2ccc(C3(C(=O)Nc4ccc(F)cc4)CCC3)nc2O)c1 [Example 54, 3-cyano-N-(6-(1-((4-fluorophenyl)carbamoyl)cyclobutyl)-2-hydroxypyridin-3-yl)benzamide] | 540 nM |  |
| O=C(NC1CCCCC1)c1ccc(C2(C(=O)Nc3ccc(F)cc3)CCC2)cn1 [Example 35, N-cyclohexyl-5-(1-((4-fluorophenyl)carbamoyl)cyclobutyl)picolinamide] | 473 nM | ≥ 10000 nM |
| N#Cc1ccc(C(=O)Nc2ccc(C3(NC(=O)c4ccc(Cl)nc4)CCC3)nc2)cc1 [Example 47, 6-chloro-N-(1-{5-[(4-cyanobenzene-1-carbonyl)amino]pyridin-2-yl}cyclobutyl)pyridine-3-carboxamide] | 2000 nM | ≥ 10000 nM |
| O=C(Nc1ccc(C2(C(=O)Nc3ccc(F)cc3)CCC2)cn1)c1cncc(F)c1 [Example 28, 5-fluoro-N-(5-{1-[(4-fluorophenyl)carbamoyl]cyclobutyl}pyridin-2-yl)pyridine-3-carboxamide] | 30 nM | ≥ 10000 nM |
| O=C(Nc1ccc(C2(C(=O)NCCC(F)(F)F)CCC2)cn1)c1cccc(Cl)c1 [Example 3, 3-chloro-N-(5-{1-[(3,3,3-trifluoropropyl)carbamoyl]cyclobutyl}pyridin-2-yl)benzamide] | 3 nM | ≥ 10000 nM |
| O=C(Nc1ccc(C2(C(=O)Nc3ccc(F)cc3)CCC2)cn1)C1CCC(F)(F)CC1 [Example 9, 4,4-difluoro-N-(5-{1-[(4-fluorophenyl)carbamoyl]cyclobutyl}pyridin-2-yl)cyclohexane-1-carboxamide] | 56 nM | ≥ 10000 nM |
| N#C[C@@H]1CCC[C@H](C(=O)Nc2ccc(C3(C(=O)Nc4ccc(F)cc4)CCC3)cn2)C1 [Example 10, (1S,3R)-3-cyano-N-(5-{1-[(4-fluorophenyl)carbamoyl]cyclobutyl}pyridin-2-yl)cyclohexane-1-carboxamide] | 67 nM | ≥ 10000 nM |
| N#C[C@@H]1CCC[C@@H](C(=O)Nc2ccc(C3(C(=O)Nc4ccc(F)cc4)CCC3)cn2)C1 [Example 13, (1R,3R)-3-cyano-N-(5-{1-[(4-fluorophenyl)carbamoyl]cyclobutyl}pyridin-2-yl)cyclohexane-1-carboxamide] | 236 nM | ≥ 10000 nM |
| CCCNC(=O)C1(c2ccc(NC(=O)c3cccc(Cl)c3)nc2)CCC1 [Example 4, 3-chloro-N-{5-[1-(propylcarbamoyl)cyclobutyl]pyridin-2-yl}benzamide] | 151 nM | ≥ 10000 nM |
| O=C(Nc1ccc(C2(C(=O)Nc3ccc(F)cc3)CCC2)cn1)c1c(F)ccc(Cl)c1F [Example 21, 3-chloro-2,6-difluoro-N-(5-{1-[(4-fluorophenyl)carbamoyl]cyclobutyl}pyridin-2-yl)benzamide] | 94 nM | ≥ 10000 nM |
| N#Cc1cncc(C(=O)Nc2ccc(C3(C(=O)Nc4ccc(F)cc4)CCC3)cn2)c1 [Example 32, 5-cyano-N-(5-{1-[(4-fluorophenyl)carbamoyl]cyclobutyl}pyridin-2-yl)pyridine-3-carboxamide] | 174 nM | ≥ 10000 nM |
| Cc1cccc(C(=O)Nc2ccc(C3(C(=O)Nc4ccc(F)nc4)CCC3)cn2)n1 [Example 8, N-(5-{1-[(6-fluoropyridin-3-yl)carbamoyl]cyclobutyl}pyridin-2-yl)-6-methylpyridine-2-carboxamide] | 43 nM | ≥ 10000 nM |
| O=C(CCC1CC1)Nc1ccc(C2(C(=O)Nc3ccc(F)nc3)CCC2)cn1 [Example 12, 1-{6-[(3-cyclopropylpropanoyl)amino]pyridin-3-yl}-N-(6-fluoropyridin-3-yl)cyclobutane-1-carboxamide] | 227 nM | ≥ 10000 nM |
| O=C(Nc1ccc(C2(C(=O)Nc3ccc(F)cc3)CCC2)cn1)c1cc(Cl)ccc1F [Example 16, 5-chloro-2-fluoro-N-(5-{1-[(4-fluorophenyl)carbamoyl]cyclobutyl}pyridin-2-yl)benzamide] | 14 nM | ≥ 10000 nM |
| O=C(Nc1ccc(C2(C(=O)Nc3ccc(F)nc3)CCC2)cn1)c1cccc(Cl)n1 [Example 6, 6-chloro-N-(5-{1-[(6-fluoropyridin-3-yl)carbamoyl]cyclobutyl}pyridin-2-yl)pyridine-2-carboxamide] | 94 nM | ≥ 10000 nM |

Now from value to compound:

| IC50 [1] | IC50 [2] | Compound |
| --- | --- | --- |
| 921 nM | ≥ 10000 nM | O=C(NC1(c2ccc(NC(=O)c3ncco3)cn2)CCC1)c1ccc(Cl)nc1 [Example 39, N-(6-(1-(6-chloronicotinamido)cyclobutyl)pyridin-3-yl)oxazole-2-carboxamide] |
| 1210 nM | ≥ 10000 nM | N#Cc1cncc(C(=O)Nc2ccc(C3(NC(=O)c4ccc(Cl)nc4)CCC3)nc2)c1 [Example 49, N-(6-{1-[(6-chloropyridine-3-carbonyl)amino]cyclobutyl}pyridin-3-yl)-5-cyanopyridine-3-carboxamide] |
| 469 nM | ≥ 10000 nM | O=C(Nc1ccc(C2(NC(=O)c3ccc(Cl)nc3)CCC2)nc1)c1ccnc(C(F)(F)F)c1 [Example 45, 6-chloro-N-[1-(5-{[2-(trifluoromethyl)pyridine-4-carbonyl]amino}pyridin-2-yl)cyclobutyl]pyridine-3-carboxamide] |
| 20 nM | ≥ 10000 nM | O=C(Nc1ccc(C2(NC(=O)c3ccc(Cl)nc3)CCC2)nc1)c1cccc(F)c1 [Example 51, 6-chloro-N-(1-{5-[(3-fluorobenzene-1-carbonyl)amino]pyridin-2-yl}cyclobutyl)pyridine-3-carboxamide] |
| 377 nM | ≥ 10000 nM | O=C(Nc1ccc(C2(NC(=O)c3ccc(Cl)nc3)CCC2)nc1)c1ccnc(Cl)c1 [Example 43, 6-chloro-N-(1-{5-[(2-chloropyridine-4-carbonyl)amino]pyridin-2-yl}cyclobutyl)pyridine-3-carboxamide] |
| 131 nM | ≥ 10000 nM | O=C(Nc1ccc(C2(NC(=O)c3ccc(Cl)nc3)CCC2)nc1)c1cncc(Cl)c1 [Example 44, 5-chloro-N-(6-{1-[(6-chloropyridine-3-carbonyl)amino]cyclobutyl}pyridin-3-yl)pyridine-3-carboxamide] |
| 280 nM | ≥ 10000 nM | O=C(NC1(c2ccc(NC(=O)c3nccs3)cn2)CCC1)c1ccc(Cl)nc1 [Example 40, 6-chloro-N-(1-{5-[(1,3-thiazole-2-carbonyl)amino]pyridin-2-yl}cyclobutyl)pyridine-3-carboxamide] |
| 35 nM | ≥ 10000 nM | N#Cc1cccc(C(=O)Nc2ccc(C3(NC(=O)c4ccc(Cl)nc4)CCC3)nc2)c1 [Example 48, 6-chloro-N-(1-{5-[(3-cyanobenzene-1-carbonyl)amino]pyridin-2-yl}cyclobutyl)pyridine-3-carboxamide] |
